From patent US8445207B2, “Genes based on thalidomide, valproic acid and methotrexate treatment for screening of drug inducing teratogenicity and screening method using thereof” (priority 2009, dated 2013)

Tested on: JEG-3 (human placental choriocarcinoma cell line)
Test: Oligo microarray gene expression in drug-treated JEG-3 (Cy5 treated / Cy3 control)
Format: cell-based
Protocol: Thalidomide, valproic acid, and methotrexate were treated to human placental choriocarcinoma cell line at the concentrations determined above (Inhibition concentration: the concentration that can kill approximately 30% of the total cells, that is the concentration of 70% viability, IC30). mRNA was extracted from the drug treated cell line, followed by synthesis of cDNA which was labeled with Cy5. The non-treated control was labeled with Cy3. The fluorescence labeled cDNA was hybridized with 41K (thalidomide), 44K (valproic acid, methotrexate) human whole genome oligomicroarray chips (Agilent, USA), followed by fluorescent image scanning to analyze gene expression patterns (see FIG. 4). Volcano Plot of each substance was also attached. Y axis indicates probability (generally converted by −log 10). X axis indicates differential expression, which is presented by log-ratio.
Total RNA was separated from the treated cell by using trizol reagent (Invitrogen Life Technologies, USA) according to the manufacture's instructions, followed by purification using RNeasy mini kit (Qiagen, USA). Genomic DNA was eliminated during RNA purification using RNase-free DNase set (Qiagen, USA).
30 μg of the total RNA obtained above and 2 μg (1 μg/μl) of oligo (dT) primer were mixed, followed by reaction at 65° C. for 10 minutes. Annealing was performed in ice right after the reaction. Reagents were prepared as shown in Table 1 for reverse transcription of the annealed RNA.
The total RNA separated from the control group JEG-3 cells was labeled with Cy3-dUTP (green) and the total RNA separated from the experiment group JEG-3 cells treated with thalidomide, valproic acid and methotrexate was labeled with Cy5-dUTP (red). At this time, the two samples were mixed and purified by Microcon YM-30 column (Millipore, USA).
Hybridization and washing were performed by the manufacturer's (GenoCheck, Korea) instructions. Particularly, hybridization was performed in a 62° C. oven for 12 hours. As a DNA microarray chip, 44 k whole human genome oligo microarray (Agilent, USA) was used. After washing (2 minutes with 2×SSC/0.1% SDS, three minutes with 1×SSC, 2 minutes with 0.2×SSC), the slide was dried by centrifugation at 800 rpm for 3 minutes.
Hybridization image on the slide was scanned with Genepix 4000B (Axon Instruments, USA). Fluorescence image of the chip on which non-hybridized genes had been washed out was obtained by using laser fluorescence scanner. Green fluorescence image indicates the activity of gene specifically expressed in the control group and red fluorescence image indicates the activity of gene specifically expressed in the experimental group. […] Scanned image was analyzed by using GenePix 4.1 software (Axon Instruments, USA) to calculate gene expression rate.

[1] = out of 21797 (thalidomide), 21921 (valproic acid), 24006 (methotrexate) genes
[2] = treated at IC30, up-regulated gene, (h) Nervous system development

CCCC(CCC)C(=O)O [VPA, valproic acid]
cDNA microarray (Cy3/Cy5 ratio), KIAA0310 (GenBank AB002308): 1.59 | cDNA microarray (Cy3/Cy5 ratio), ATP10B (GenBank AB018258): 2.03 | cDNA microarray (Cy3/Cy5 ratio), TTF2 (GenBank AB209845): 1.81 | cDNA microarray (Cy3/Cy5 ratio), TncRNA (GenBank AF001893): 3.61 | cDNA microarray (Cy3/Cy5 ratio), C4orf19 (GenBank AK001879): 1.87 | cDNA microarray (Cy3/Cy5 ratio), CYP19A1 (GenBank AK023571): 1.78 | cDNA microarray (Cy3/Cy5 ratio), SLC40A1 (GenBank AK023574): 1.7 | cDNA microarray (Cy3/Cy5 ratio), ABTB2 (GenBank AK095632): 1.6 | cDNA microarray (Cy3/Cy5 ratio), TUBB3 (GenBank AK122757): 1.7 | cDNA microarray (Cy3/Cy5 ratio), MGC27016 (GenBank AK125877): 2.62 | cDNA microarray (Cy3/Cy5 ratio), GLCCI1 (GenBank AK126731): 2.27 | cDNA microarray (Cy3/Cy5 ratio), TFCP2L4 (GenBank BC036890): 3.12 | cDNA microarray (Cy3/Cy5 ratio), RGS2 (GenBank BC042755): 3.04 | cDNA microarray (Cy3/Cy5 ratio), SIAT7A (GenBank BC063830): 1.69 | cDNA microarray (Cy3/Cy5 ratio), B7-H4 (GenBank BX648021): 0.1 | cDNA microarray (Cy3/Cy5 ratio), COBLL1 (GenBank BX649112): 1.52 | cDNA microarray (Cy3/Cy5 ratio), CGA (GenBank NM_000735): 2.14 | cDNA microarray (Cy3/Cy5 ratio), PARP1 (GenBank NM_001618): 0.61 | cDNA microarray (Cy3/Cy5 ratio), SERPINB9 (GenBank NM_004155): 3.02 | cDNA microarray (Cy3/Cy5 ratio), ST8SIA4 (GenBank NM_005668): 1.79 | cDNA microarray (Cy5 treated / Cy3 control ratio), ABL1 (GenBank NM_007313): 0.3 | cDNA microarray (Cy3/Cy5 ratio), GRLF1 (GenBank NM_024342): 0.55 | cDNA microarray (Cy3/Cy5 ratio), LGP1 (GenBank NM_032484): 0.52 | cDNA microarray (Cy3/Cy5 ratio), NCOA3 (GenBank NM_181659): 1.62 | cDNA microarray (Cy3/Cy5 ratio), SR140 (GenBank XM_031553): 0.36 | cDNA microarray (Cy3/Cy5 ratio), SLC7A8 (GenBank Y18483): 2.48 | Ratio of intermediate value, FLJ13855 (Genbank AK091644, drug at IC30): 0.44 | Ratio of intermediate value, GRLF1 (Genbank BI494022, NM_024342, drug at IC30): 0.55 | Ratio of intermediate value, B7-H4 (Genbank BX648021, drug at IC30): 0.10 | Ratio of intermediate value, PARP1 (Genbank NM_001618, drug at IC30): 0.61 | Ratio of intermediate value, ABL1 (Genbank NM_007313, drug at IC30): 0.30 | Ratio of intermediate value, LGP1 (Genbank NM_032484, drug at IC30): 0.52 | Ratio of intermediate value, SR140 (Genbank XM_031553, drug at IC30): 0.36 | genes down-regulated (ratio of intermediate value less than 0.666) (JEG-3, drug at IC30, 48 hours): 5.5% | genes up-regulated (ratio of intermediate value more than 1.5) (JEG-3, drug at IC30, 48 hours): 5.54% | number of genes down-regulated [1]: 1196 | number of genes up-regulated [1]: 1215 | Ratio of intermediate value, gene ALDH5A1 (NM_170740, ALDEHYDE DEHYDROGENASE 5 FAMILY, MEMBER A1 (SUCCINATE-SEMIALDEHYDE DEHYDROGENASE)) [2]: 4.68 | Ratio of intermediate value, gene ALS2 (NM_020919, AMYOTROPHIC LATERAL SCLEROSIS 2 (JUVENILE)) [2]: 2.40 | Ratio of intermediate value, gene C22orf9 (AY509035, ROUND-ABOUT, AXON GUIDANCE RECEPTOR, HOMOLOG 3 (DROSOPHILA)) [2]: 2.30 | Ratio of intermediate value, gene DLX2 (AB208823, NM_004405, DISTAL-LESS HOMEOBOX 2) [2]: 3.18 | Ratio of intermediate value, gene DPYSL2 (NM_001386, DIHYDROPYRIMIDINASE-LIKE 2) [2]: 3.34 | Ratio of intermediate value, gene DPYSL5 (AL713706, DIHYDROPYRIMIDINASE-LIKE 5) [2]: 2.57 | Ratio of intermediate value, gene EDG1 (BC018650, ENDOTHELIAL DIFFERENTIATION, SPHINGOLIPID G-PROTEIN-COUPLED RECEPTOR, 1) [2]: 2.34 | Ratio of intermediate value, gene EFCBP1 (L20470, VERY LOW DENSITY LIPOPROTEIN RECEPTOR) [2]: 2.10 | Ratio of intermediate value, gene FABP7 (NM_001446, FATTY ACID BINDING PROTEIN 7, BRAIN) [2]: 9.51 | Ratio of intermediate value, gene FLJ20489 (AK056650, IMMUNOGLOBULIN SUPERFAMILY, MEMBER 9) [2]: 2.50 | Ratio of intermediate value, gene FLJ31842 (AY643499, HEXOSAMINIDASE B (BETA POLYPEPTIDE)) [2]: 2.38 | Ratio of intermediate value, gene GJA1 (NM_000165, GAP JUNCTION PROTEIN, ALPHA 1, 43 KDA (CONNEXIN 43)) [2]: 4.30 | Ratio of intermediate value, gene GRB14 (BM906235, INHIBITOR OF DNA BINDING 3, DOMINANT NEGATIVE HELIX-LOOP-HELIX PROTEIN) [2]: 4.33
